≈ marks a conversion by molar mass, not a printed value.

This is an account of results in PubChem BioAssay AID1996.

The conditions of the data set: buffer; pH 7.4; 200.0 µM.
One may read the solubility (kinetic) as solubility judged after dilution from a stock solution rather than from solid. `COC(=O)c1ccc2nc(-c3cccc(N)c3)cn2c1`: the kinetic solubility was found to be 33.5 µg/mL (≈ 125 µM). To `CC1CN(CC(O)COC2CCC(C(C)(C)C)CC2)CC(C)O1.Cl` (centres undefined) belongs 48.8 µg/mL; to `O=C(NCc1ccccc1)c1ccccc1-c1nc2ccccc2[nH]1`, 2.2 µg/mL (≈ 6.72 µM). The same measure for `O=C(O)/C=C/C(=O)Nc1cc(F)ccc1F`: over 34.1 µg/mL; for `CCOc1ccccc1NC(=O)COC(=O)CN1C(=O)NC(C)(C)C1=O`: over 54.5 µg/mL. As for `Cn1c(=S)[nH]c2c(c1=O)C(C)(C)Cc1ccccc1-2`, the kinetic solubility was determined as 3 µg/mL (≈ 11 µM). Consider `CN(Cc1ccccc1)C(=O)COC(=O)c1cc(=O)c2ccccc2o1`, for which the solubility (kinetic) is over 52.7 µg/mL. The same measure for `CCOP(=O)(Cc1ccc(C#N)o1)OCC`: over 36.5 µg/mL; for `CCC(C)NC(=O)c1ccc(C(=O)c2ccccc2)cc1` (centres undefined): 41.6 µg/mL (≈ 148 µM). The compound `CCOc1ccc(/C=N/N2C(C)CCCC2C)cc1OC` (centres undefined) yielded a kinetic solubility of over 43.6 µg/mL. The same measure for `CS(=O)(=O)c1ccc(NCC2CCCO2)c([N+](=O)[O-])c1` (centres undefined): over 45 µg/mL; for `CC(=O)NC(c1cccc([N+](=O)[O-])c1)c1ccc2cccnc2c1O` (centres undefined): 3.5 µg/mL (≈ 10.4 µM). `CN(CC(=O)Nc1cccc(F)c1)C(=O)c1ccc(-c2ccc(Cl)cc2)o1`: the solubility (kinetic) was found to be 5.6 µg/mL (≈ 14.5 µM). Take `CCOc1ccc2nc(SCC(=O)NCc3ccccc3)[nH]c2c1`: the solubility (kinetic) came out at 44.3 µg/mL (≈ 130 µM). To `COc1cc(S(=O)(=O)N2CCCN(C)CC2)ccc1NC(C)=O` belongs over 51.2 µg/mL. The same measure for `COCCNC(=O)c1cc(C(=O)CC(C)C)c[nH]1`: over 37.8 µg/mL; for `CCN(CC)Cc1c(O)ccc2c1O/C(=C\C=C\c1ccccc1)C2=O`: 42.2 µg/mL (≈ 121 µM). With `Cc1cccc(OCC(=O)Nc2ccc3oc(=O)ccc3c2)c1`, the kinetic solubility was 3.3 µg/mL (≈ 10.7 µM). As for `CCc1cccc(C)c1NC(=O)Cc1ccsc1`, the solubility (kinetic) stood at 34.9 µg/mL (≈ 135 µM).

The compound `CN(c1ccc(OCC(=O)NC2CCC(O)CC2)cc1)S(=O)(=O)c1ccc(Cl)cc1` (centres undefined) returned a solubility (kinetic) of over 67.9 µg/mL.

On to `CCC(C)N1CCN(S(=O)(=O)Cc2ccccc2)CC1` (centres undefined), for which the solubility (kinetic) is over 44.5 µg/mL. Regarding `Nc1cc(=O)[nH]c(SCC(=O)Nc2ccc(S(=O)(=O)N3CCCC3)cc2)n1`, the kinetic solubility was over 61.4 µg/mL. The same measure for `Cc1cccc(OCC(=O)NCc2nc(-c3ccccc3)no2)c1`: 3.1 µg/mL (≈ 9.59 µM). The same measure for `Cc1ccc(NC(=O)CN(C)C(=O)c2ccc(Cl)nc2)cc1`: over 47.7 µg/mL.

In the case of `O=C(O)CNC(=S)N(Cc1ccc(F)cc1)C1CCCCC1`, the solubility (kinetic) was over 48.7 µg/mL. The same measure for `COc1ccc(S(=O)(=O)NCCc2c[nH]c3ccc(Cl)cc23)cc1`: 18.6 µg/mL (≈ 51 µM); for `Cc1[nH]c2ccc3ccccc3c2c(=O)c1C/C=C/Cl`: 1.1 µg/mL (≈ 3.88 µM). Turning to `CC1CCCCN1CC(O)COCc1ccccc1.Cl` (centres undefined), the kinetic solubility is over 45 µg/mL. For `CC(C)c1ccc(NC(=O)NCc2cccnc2)cc1`, the kinetic solubility was over 40.4 µg/mL. The same measure for `Cc1cccc(NC(=O)c2cc3ccccc3oc2=O)c1`: under 0.6 µg/mL; for `CCCCN1C(=O)CC(Sc2ncccc2C(=O)O)C1=O` (centres undefined): 39.9 µg/mL (≈ 129 µM); for `Cc1ccc(C(=O)Nc2ccccc2)cc1S(=O)(=O)N1CCN(C)CC1`: 31.8 µg/mL (≈ 85.1 µM). Compound `N#C/C(=C\c1ccc(Cl)cc1)C(=O)NC1CC1` yielded a solubility (kinetic) of 5 µg/mL (≈ 20.3 µM).

Compound `NC(=O)c1cccnc1` had a kinetic solubility of 2.8 µg/mL (≈ 22.9 µM). `Cc1ccc(NC(=O)COC(=O)C2C3CC4OC(=O)C2C4C3)cc1` (centres undefined): the kinetic solubility came to 47.3 µg/mL (≈ 144 µM).

On to `Cc1cc(C)cc(OC(=O)c2cccnc2)c1`, for which the solubility (kinetic) came out at 30.6 µg/mL (≈ 135 µM). To `COc1ccccc1NC(=O)Nc1ccc(N2CCOCC2)cc1` belongs 45.8 µg/mL (≈ 140 µM). As to `COc1ccc(C(=O)NCCCOc2cccc(NC(C)=O)c2)cc1`, the solubility (kinetic) was over 51.4 µg/mL. `Cc1noc(N)c1C1(O)C(=O)Nc2c(Cl)cc(Cl)cc21` (centres undefined) showed a solubility (kinetic) of over 47.1 µg/mL.

For the compound `Cc1ccc(S(=O)(=O)NC2=NCN(C)CN2)cc1[N+](=O)[O-]`, the kinetic solubility was over 47 µg/mL. To `CCCCNC(=O)Nc1ccc(C2SCCS2)cc1` belongs 9.9 µg/mL (≈ 33.4 µM). `Cc1cccc(CSc2[nH]c(=O)ncc2C)c1` returned a kinetic solubility of 15.7 µg/mL (≈ 63.7 µM). For `COC(=O)c1cc(S(=O)(=O)N(C)C2CCCCC2)cn1C`, the solubility (kinetic) turned out to be 45 µg/mL (≈ 143 µM). Regarding `Cc1cc(C=O)c(C)n1C1CC1`, the kinetic solubility is 17.6 µg/mL (≈ 108 µM). As for `Cc1ccc(C2(C)NC(=O)N(CC(=O)Nc3ccc4c(c3)CCC4)C2=O)cc1` (centres undefined), the solubility (kinetic) was 3.5 µg/mL (≈ 9.27 µM). To `Cc1cc(C)c2c(CC(=O)NCCc3ccccc3)coc2c1` belongs under 0.7 µg/mL; to `Cc1cccc(NC(=O)NCC(c2ccco2)N2CCCCC2)c1` (centres undefined), over 49.1 µg/mL; to `CCN(C(=O)c1ccc(Br)o1)C1CCS(=O)(=O)C1` (centres undefined), over 50.4 µg/mL. `CCn1ccnc1CNC(=O)c1ccc2oc(C(C)C)nc2c1` yielded a solubility (kinetic) of over 46.9 µg/mL.

Take `CCCN1CN=C(Nc2nc3ccccc3o2)NC1`: the solubility (kinetic) turned out to be 18.9 µg/mL (≈ 72.9 µM). To `CC(=O)NC(NC(=S)Nc1ccc(S(N)(=O)=O)cc1)C(Cl)(Cl)Cl` (centres undefined) belongs 62.6 µg/mL (≈ 149 µM); to `O=C(Nc1cccnc1)c1ccc(N2CCOCC2)c([N+](=O)[O-])c1`, 41.2 µg/mL (≈ 125 µM). `Clc1ccc(N2CCN(Cc3ccco3)CC2)cc1`: the kinetic solubility came out at 22.5 µg/mL (≈ 81.3 µM). In turn, `COc1ccc(CNC(=O)c2cccnc2SC)cc1OC` displayed a solubility (kinetic) of over 47.8 µg/mL. For `Clc1ccc(OCCN2CCOCC2)cc1`, the kinetic solubility was determined as 28.7 µg/mL (≈ 119 µM). As to `COCCNc1nc2c(c(=O)n(Cc3ccccc3F)c(=O)n2C)n1C`, the solubility (kinetic) came out at 8.5 µg/mL (≈ 23.5 µM). Take `CC(C)c1ccc(Nc2c([N+](=O)[O-])c(=O)n(C)c3ccccc23)cc1`: the solubility (kinetic) was under 0.2 µg/mL. Take `COc1ccc(-n2c(CNCCc3ccc(C)cc3)nc3ccccc3c2=O)cc1`: the kinetic solubility stood at 45.2 µg/mL (≈ 113 µM). Consider `COc1ccccc1OCCCC(=O)NC(C)c1ccccc1` (centres undefined), for which the solubility (kinetic) was over 47 µg/mL.

As to `O=C(NCCNC(=O)c1ccccc1)c1ccccc1`, the kinetic solubility was over 40.2 µg/mL. For the compound `O=S(=O)(c1cccc(-c2nnco2)c1)N1CCOCC1`, the kinetic solubility was over 44.3 µg/mL. In turn, `CN1CC(=O)N(CC(=O)Nc2ccc(OCc3ccccc3)cc2)C1=O` gave a kinetic solubility of 45.7 µg/mL (≈ 129 µM). `CNS(=O)(=O)c1cc(Nc2ncnc3sccc23)ccc1C` returned a solubility (kinetic) of 2.5 µg/mL (≈ 7.48 µM). With `Cc1csc(SC(C)C(=O)NCc2ccc3c(c2)OCO3)n1` (centres undefined), the solubility (kinetic) worked out at 49 µg/mL (≈ 146 µM).

As for `Cc1nnc(SCC(=O)NC2CCCCC2)n1N`, the kinetic solubility is over 40.4 µg/mL.

`CC(COc1ccccc1)N(CCCl)Cc1ccccc1.Cl` (centres undefined): the kinetic solubility turned out to be 45.8 µg/mL. In the case of `O=C(COc1ccc([N+](=O)[O-])cc1Cl)Nc1ccc2[nH]c(=O)[nH]c2c1`, the kinetic solubility is 7.5 µg/mL (≈ 20.7 µM). `Cc1cnc(C(=O)NC(C)CCc2ccccc2)cn1` (centres undefined) came in with a solubility (kinetic) of over 40.4 µg/mL. To `Cc1ccc(S(=O)(=O)NCc2ccccn2)c(C)c1C` belongs 43.2 µg/mL (≈ 149 µM). With `COc1ccc(CCNC(=O)Nc2ccc(F)cc2F)cc1OC`, the solubility (kinetic) is 1.6 µg/mL (≈ 4.76 µM). With `COc1ccc(NC(=O)CN(C)C(=O)CCc2ccccc2)cc1`, the solubility (kinetic) was 40.7 µg/mL (≈ 125 µM). On to `CC(=O)c1c(C)[nH]c(C(=O)COC(=O)c2c(C)noc2C)c1C`, for which the solubility (kinetic) was 5.4 µg/mL (≈ 17 µM). Consider `N#Cc1ccc(C(=O)NC(=S)N2CCOCC2)cc1`, for which the kinetic solubility is over 41.3 µg/mL.

`CCN(CC)S(=O)(=O)c1ccc(N)cc1` yielded a kinetic solubility of over 34.2 µg/mL.
